In article PMC12301304 (Frontiers in Pharmacology, 2025):
Read-outs that look alike come from different tables or passages of the source.

Legend:
[1] = Pharmacokinetics of the seven cocktail probe drugs in blank control rats (Group C); details: for AUC(0-inf) / AUC(0-t) / CL/F / Cmax / half-life: rat, in vivo, po; for t1/2 z: probe drug in rat plasma, cocktail by gavage, Group C (0.3% CMC-Na 14 d), n = 8
Method: The effect of the Zhicaowu–Hezi combination on CYP450 enzymes in rats was evaluated by examining the pharmacokinetics of theophylline (CYP1a2), metoprolol (CYP2d2), bupropion (CYP2b1), omeprazole (CYP2c13), chlorzoxazone (CYP2e1), testosterone (CYP3a1), and diclofenac (CYP2c11).
The collected blood was placed in sodium heparin-treated centrifuge tubes and centrifuged at 4°C for 10 min at 3,000 RPM. […] After 10 min of sedimentation, the supernatant was extracted through a 0.22-μm microporous membrane, 20 μL of which was injected into HPLC. The pharmacokinetic parameters of each probe drug were calculated using the non-atrial compartment model in Drug and Statistics software (DAS, 3.0; Shanghai, China).

[2] = target: T1, CYP2c13 (Rattus norvegicus, UniProt P20814); test: RLM incubation: metabolic clearance rate of mephenytoin (CYP2c13); details: RLM 0.5 mg/mL, 30 min 37°C, inhibitor added, blank control 15.97 ± 0.68, n = 3
T1 sequence (P20814 1-490): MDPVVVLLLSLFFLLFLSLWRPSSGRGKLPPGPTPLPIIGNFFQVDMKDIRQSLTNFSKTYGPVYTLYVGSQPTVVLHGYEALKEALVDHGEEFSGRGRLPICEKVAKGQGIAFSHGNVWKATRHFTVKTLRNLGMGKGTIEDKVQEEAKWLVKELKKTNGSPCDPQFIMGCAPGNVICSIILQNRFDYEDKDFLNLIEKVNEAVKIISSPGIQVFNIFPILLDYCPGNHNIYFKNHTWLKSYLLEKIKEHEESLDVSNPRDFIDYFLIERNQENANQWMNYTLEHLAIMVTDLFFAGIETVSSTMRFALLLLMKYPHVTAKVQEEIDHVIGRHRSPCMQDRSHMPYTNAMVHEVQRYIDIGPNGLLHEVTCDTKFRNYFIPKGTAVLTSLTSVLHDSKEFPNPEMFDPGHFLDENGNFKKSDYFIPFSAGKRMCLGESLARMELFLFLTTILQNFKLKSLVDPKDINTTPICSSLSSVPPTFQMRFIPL
Method: (§1) The effect of the Zhicaowu–Hezi combination on CYP450 enzymes in RLM was evaluated by assessing the metabolic clearance rates of theophylline, metoprolol, bupropion, mephenytoin (CYP2c13), chlorzoxazone, testosterone, and diclofenac.
(§2) On day 15, the rats were humanely euthanized, and liver tissues were excised for microsomal preparation. […] Livers from each group were repeatedly washed with ice-cold phosphate buffered saline (PBS). […] Subsequently, they were blotted dry with filter paper, weighed, and homogenized by adding 4 mL of ice-cold PBS per gram of liver tissue. The mixture was homogenized in an ice bath. The liver homogenate was subjected to centrifugation at 10,000 RPM for 20 min at 4°C. The resulting supernatant was then combined with an ice-cold 88-mmol/L CaCl2 solution at a 1:1 ratio, and the mixture was homogenized in an ice bath for 5 min. The resulting solution was then centrifuged at 25,000 × g for 30 min at 4°C. The supernatant was discarded and the precipitate was repeatedly resuspended in PBS–20% glycerol buffer. The precipitate was then stored in a separate bottle at −80°C for backup. The protein concentration of the prepared RLM was determined using a bicinchoninic acid protein assay kit.
(§3) Preincubation was conducted for 5 min in a water bath at 37°C, after which NADPH (1 mmol/L) was added, and incubation continued for 30 min at 37°C. Once the incubation period elapsed, the reaction was terminated by the addition of an ice-cold IS-containing acetonitrile solution. The samples were vortexed for 2 min and centrifuged at 15,000 RPM for 10 min. The resulting supernatant was filtered through a 0.22-μm organic microporous membrane, and 20 μL of the filtered solution was injected into the HPLC assay. To prevent the organic solvents from inducing or inhibiting the enzyme, the volume fraction of organic solvents in the entire incubation system was maintained at 1%. […] The inhibitor group was added with corresponding inhibitor, while all other procedures remained identical.

[3] = target: T2, CYP2c11 (Rattus norvegicus, UniProt P08683); details: RLM 0.5 mg/mL, 30 min 37°C, inhibitor added, probe diclofenac; blank control 21.12 ± 3.80; n = 3
T2 sequence (P08683 1-500): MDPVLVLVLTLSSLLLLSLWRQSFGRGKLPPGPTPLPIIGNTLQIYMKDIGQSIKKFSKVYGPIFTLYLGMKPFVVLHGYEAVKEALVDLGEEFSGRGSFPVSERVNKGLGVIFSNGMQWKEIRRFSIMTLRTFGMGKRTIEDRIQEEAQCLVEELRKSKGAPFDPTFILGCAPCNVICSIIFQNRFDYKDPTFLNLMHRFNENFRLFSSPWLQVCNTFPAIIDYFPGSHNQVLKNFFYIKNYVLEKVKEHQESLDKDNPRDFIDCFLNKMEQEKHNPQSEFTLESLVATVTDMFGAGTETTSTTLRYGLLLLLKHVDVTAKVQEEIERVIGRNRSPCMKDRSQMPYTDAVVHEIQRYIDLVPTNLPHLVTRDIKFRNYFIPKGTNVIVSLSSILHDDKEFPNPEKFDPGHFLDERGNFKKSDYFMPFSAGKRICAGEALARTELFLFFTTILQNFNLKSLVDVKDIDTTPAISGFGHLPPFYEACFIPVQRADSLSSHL
Method: as §1, §2, §3

[4] = target: T3, CYP2d2 (Rattus norvegicus, UniProt P10634)
T3 sequence (P10634 1-500): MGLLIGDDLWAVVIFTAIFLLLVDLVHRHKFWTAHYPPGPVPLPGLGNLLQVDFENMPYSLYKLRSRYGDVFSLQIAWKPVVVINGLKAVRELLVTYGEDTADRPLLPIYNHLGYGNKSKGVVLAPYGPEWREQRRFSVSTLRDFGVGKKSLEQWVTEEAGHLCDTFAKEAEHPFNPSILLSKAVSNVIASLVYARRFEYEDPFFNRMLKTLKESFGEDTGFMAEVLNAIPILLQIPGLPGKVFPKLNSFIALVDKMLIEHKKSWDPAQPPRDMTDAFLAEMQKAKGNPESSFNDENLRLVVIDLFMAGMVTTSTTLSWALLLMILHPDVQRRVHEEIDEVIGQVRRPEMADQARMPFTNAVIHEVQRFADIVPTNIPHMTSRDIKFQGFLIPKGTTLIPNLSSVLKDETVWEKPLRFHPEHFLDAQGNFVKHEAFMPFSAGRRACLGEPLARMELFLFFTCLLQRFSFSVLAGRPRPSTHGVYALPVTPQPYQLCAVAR
Method: as §1, §2, §3

[5] = target: T4, CYP3a1 (Rattus norvegicus, UniProt P04800)
T4 sequence (P04800 1-504): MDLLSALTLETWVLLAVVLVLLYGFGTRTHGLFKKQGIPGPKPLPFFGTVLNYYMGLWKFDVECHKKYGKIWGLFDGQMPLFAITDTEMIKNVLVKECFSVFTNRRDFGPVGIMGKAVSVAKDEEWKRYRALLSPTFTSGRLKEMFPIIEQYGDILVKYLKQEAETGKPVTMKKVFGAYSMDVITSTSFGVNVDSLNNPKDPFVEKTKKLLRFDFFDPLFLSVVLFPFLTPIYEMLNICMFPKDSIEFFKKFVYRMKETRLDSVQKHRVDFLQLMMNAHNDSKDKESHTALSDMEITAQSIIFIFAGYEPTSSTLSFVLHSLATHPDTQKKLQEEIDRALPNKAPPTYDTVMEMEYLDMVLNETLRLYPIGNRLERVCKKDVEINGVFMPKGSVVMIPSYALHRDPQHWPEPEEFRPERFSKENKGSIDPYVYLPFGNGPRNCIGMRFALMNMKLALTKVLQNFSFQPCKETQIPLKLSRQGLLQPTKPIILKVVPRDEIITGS
Method: as §1, §2, §3

[6] = target: T5, CYP2b1 (Rattus norvegicus, UniProt P00176); test: RLM incubation: metabolic clearance rate of bupropion (CYP2b1); details: RLM 0.5 mg/mL, 30 min 37°C, inhibitor added, blank control 7.92 ± 0.60, n = 3
T5 sequence (P00176 1-491): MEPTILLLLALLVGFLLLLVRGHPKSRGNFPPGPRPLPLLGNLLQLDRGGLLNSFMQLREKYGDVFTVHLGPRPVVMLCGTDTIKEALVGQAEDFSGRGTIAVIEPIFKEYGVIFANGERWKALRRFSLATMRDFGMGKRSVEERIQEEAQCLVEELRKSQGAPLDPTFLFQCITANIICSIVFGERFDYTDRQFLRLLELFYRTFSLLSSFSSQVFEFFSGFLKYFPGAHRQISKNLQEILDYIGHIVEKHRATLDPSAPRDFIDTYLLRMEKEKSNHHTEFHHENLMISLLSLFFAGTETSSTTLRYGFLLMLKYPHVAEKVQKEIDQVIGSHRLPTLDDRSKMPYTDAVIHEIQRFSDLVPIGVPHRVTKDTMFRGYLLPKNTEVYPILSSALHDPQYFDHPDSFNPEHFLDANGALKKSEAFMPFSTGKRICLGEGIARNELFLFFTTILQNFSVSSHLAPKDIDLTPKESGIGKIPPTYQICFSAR
Method: as §1, §2, §3

[7] = target: CYP2e1 (Rattus norvegicus, UniProt P05182); test: RLM incubation: metabolic clearance rate of chlorzoxazone (CYP2e1); details: RLM 0.5 mg/mL, 30 min 37°C, inhibitor added, blank control 15.80 ± 0.34, n = 3
Method: as §1, §2
Preincubation was conducted for 5 min in a water bath at 37°C, after which NADPH (1 mmol/L) was added, and incubation continued for 30 min at 37°C. […]

[8] = target: T6, CYP1a2 (Rattus norvegicus, UniProt P04799); details: microsomes
T6 sequence (P04799 1-513): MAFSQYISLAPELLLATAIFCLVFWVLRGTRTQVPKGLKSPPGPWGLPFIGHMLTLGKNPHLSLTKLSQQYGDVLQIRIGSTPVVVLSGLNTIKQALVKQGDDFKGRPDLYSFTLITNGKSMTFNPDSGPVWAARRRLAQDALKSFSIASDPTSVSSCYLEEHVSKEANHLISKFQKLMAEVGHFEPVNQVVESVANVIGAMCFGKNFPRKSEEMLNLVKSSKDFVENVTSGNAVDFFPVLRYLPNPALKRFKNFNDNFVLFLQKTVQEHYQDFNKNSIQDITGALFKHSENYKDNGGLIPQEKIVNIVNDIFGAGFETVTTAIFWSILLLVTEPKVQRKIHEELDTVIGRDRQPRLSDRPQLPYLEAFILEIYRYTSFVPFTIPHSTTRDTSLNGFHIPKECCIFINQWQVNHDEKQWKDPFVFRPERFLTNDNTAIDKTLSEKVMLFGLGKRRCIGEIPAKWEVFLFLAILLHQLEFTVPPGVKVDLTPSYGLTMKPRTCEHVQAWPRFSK
Method: as §1, §2, §3

[9] = ref Jin et al., 2024, cited from earlier work

Chain of CYP2e1 (P05182 whole entry): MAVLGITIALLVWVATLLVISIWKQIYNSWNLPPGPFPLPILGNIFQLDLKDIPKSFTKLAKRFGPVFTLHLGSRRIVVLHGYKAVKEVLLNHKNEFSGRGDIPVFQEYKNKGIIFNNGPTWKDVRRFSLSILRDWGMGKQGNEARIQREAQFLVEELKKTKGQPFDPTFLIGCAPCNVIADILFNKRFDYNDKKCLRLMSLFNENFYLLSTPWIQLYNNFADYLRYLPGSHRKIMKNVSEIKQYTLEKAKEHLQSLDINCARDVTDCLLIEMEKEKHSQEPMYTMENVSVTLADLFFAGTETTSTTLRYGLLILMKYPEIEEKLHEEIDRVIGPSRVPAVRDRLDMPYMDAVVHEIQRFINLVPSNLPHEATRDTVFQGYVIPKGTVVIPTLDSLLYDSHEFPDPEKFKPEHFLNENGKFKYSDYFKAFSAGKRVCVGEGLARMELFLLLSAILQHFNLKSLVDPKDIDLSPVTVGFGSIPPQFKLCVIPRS

SMILES | AUC(0-inf) [1] | AUC(0-t) [1] | CL/F [1] | Cmax [1] | half-life [1] | other results
CC(NC(C)(C)C)C(=O)c1cccc(Cl)c1 (stereo not shown) [bupropion] | 16.3 ± 1.41 µg·h/mL | 15.8 ± 1.32 µg·h/mL | 0.43 L/h/kg | 1.3 ± 0.093 µg/mL | 18.7 ± 0.948 h | 
COCCc1ccc(OCC(O)CNC(C)C)cc1 (stereo not shown) [metoprolol] | 10.1 ± 1.48 µg·h/mL | 9.6 ± 0.988 µg·h/mL | 1.58 L/h/kg | 0.891 ± 0.114 µg/mL | 7.95 ± 1.15 h | 
C[C@]12CC[C@H]3[C@@H](CCC4=CC(=O)CC[C@@]43C)[C@@H]1CC[C@@H]2O [testosterone] | 1.41 ± 0.069 µg·h/mL | 1.21 ± 0.081 µg·h/mL | 4.01 L/h/kg | 0.295 ± 0.054 µg/mL | 11.1 ± 1.11 h | 
Cn1c(=O)c2[nH]cnc2n(C)c1=O [theophylline] | 22.5 ± 1.44 µg·h/mL | 21.9 ± 1.25 µg·h/mL | 0.465 L/h/kg | 1.81 ± 0.094 µg/mL |  | t1/2 z [1]: 5.273 ± 0.526 h
Nc1ccc(S(=O)(=O)Nc2ccnn2-c2ccccc2)cc1 [Sulfaphenazolum] |  |  |  |  |  | CYP2c13(%) metabolic clearance rate of probe drug [2]: 16.47 ± 1.34%; CYP2c11(%) metabolic clearance rate of probe drug [3]: 6.16 ± 0.65 %; CYP2d2 (%) metabolic clearance rate of probe drug ([4]; RLM 0.5 mg/mL, 30 min 37°C, inhibitor added, probe metoprolol, blank control […] ± 2.12, n = 3): 13.50 ± 0.30%; CYP3a1 (%) metabolic clearance rate of probe drug ([5]; RLM 0.5 mg/mL, 30 min 37°C, inhibitor added, probe testosterone, blank control 25.04 ± 1.93, n = 3): 25.69 ± 1.69%; CYP2b1(%) metabolic clearance rate of probe drug [6]: 7.74 ± 0.98%; CYP2e1 (%) metabolic clearance rate of probe drug [7]: 16.11 ± 0.18%
COc1ccc2[nH]c([S+]([O-])Cc3ncc(C)c(OC)c3C)nc2c1 (stereo not shown) [omeprazole] | 3.9 ± 0.394 µg·h/mL | 3.84 ± 0.372 µg·h/mL | 2.61 L/h/kg | 0.995 ± 0.078 µg/mL |  | t1/2 z [1]: 4.689 ± 0.467 h
O=C(O)Cc1ccccc1Nc1c(Cl)cccc1Cl [diclofenac] | 5.47 ± 0.358 µg·h/mL | 5.23 ± 0.465 µg·h/mL | 2.54 L/h/kg | 1.08 ± 0.115 µg/mL | 4.98 ± 0.557 h | 
CC(=O)N1CCN(c2ccc(OCC3COC(Cn4ccnc4)(c4ccc(Cl)cc4Cl)O3)cc2)CC1 (stereo not shown) [Ketoconazole, ketoconazole] |  |  |  |  |  | CYP2c13(%) metabolic clearance rate of probe drug [2]: 17.26 ± 1.08%; CYP1a2 (%) metabolic clearance rate of probe drug [8]: 36.04 ± 1.71%; CYP2d2 (%) metabolic clearance rate of probe drug [4]: 12.73 ± 1.11%; CYP3a1 (%) metabolic clearance rate of probe drug [5]: 5.45 ± 2.49 %; CYP2b1(%) metabolic clearance rate of probe drug [6]: 7.11 ± 0.17%
CC1(C)[C@@H](O[C@H]2O[C@H](C(=O)O)[C@@H](O)[C@H](O)[C@H]2O[C@@H]2O[C@H](C(=O)O)[C@@H](O)[C@H](O)[C@H]2O)CC[C@]2(C)[C@H]3C(=O)C=C4[C@@H]5C[C@@](C)(C(=O)O)CC[C@]5(C)CC[C@@]4(C)[C@]3(C)CC[C@@H]12 [glycyrrhizin] |  |  |  |  |  | reduction of systemic exposure to aconitine ([9]; glycyrrhizin by intravenous injection): 33%; reduction of systemic exposure to aconitine ([9]; glycyrrhizin by oral gavage): 27%
